# Measured values from patent publication US20090312396A1, “METHODS FOR CANCER TREATMENT USING TAK1 INHIBITORS” (AstraZeneca AB, priority 2006, published 2009).
# Read-outs that look alike come from different tables or passages of the source.
# Assays:
# [1] = biological target: T1, TAK1 (Homo sapiens, UniProt O43318); assay: TAK1 enzyme inhibition; type: biochemical; settings: Table 4; read-out: TAK1 pIC50 (enzyme) (converted)
# T1 sequence (O43318 1-606): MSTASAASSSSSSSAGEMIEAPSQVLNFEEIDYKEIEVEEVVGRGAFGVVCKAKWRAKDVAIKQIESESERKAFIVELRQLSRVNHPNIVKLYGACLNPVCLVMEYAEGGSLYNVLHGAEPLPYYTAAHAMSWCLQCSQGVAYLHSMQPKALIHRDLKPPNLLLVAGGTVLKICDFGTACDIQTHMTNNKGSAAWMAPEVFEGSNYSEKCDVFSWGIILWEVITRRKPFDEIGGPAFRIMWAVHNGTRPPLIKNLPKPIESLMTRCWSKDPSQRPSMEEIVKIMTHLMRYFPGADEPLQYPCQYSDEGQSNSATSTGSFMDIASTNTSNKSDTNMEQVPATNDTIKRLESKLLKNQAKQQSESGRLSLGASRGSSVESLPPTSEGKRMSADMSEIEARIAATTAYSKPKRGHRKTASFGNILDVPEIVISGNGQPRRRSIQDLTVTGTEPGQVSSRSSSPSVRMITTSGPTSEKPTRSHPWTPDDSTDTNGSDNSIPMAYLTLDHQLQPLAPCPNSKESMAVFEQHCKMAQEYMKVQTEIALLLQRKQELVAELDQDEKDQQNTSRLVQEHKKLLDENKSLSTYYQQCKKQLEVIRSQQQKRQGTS
# T1 sequence (Q15750 1-504 partner): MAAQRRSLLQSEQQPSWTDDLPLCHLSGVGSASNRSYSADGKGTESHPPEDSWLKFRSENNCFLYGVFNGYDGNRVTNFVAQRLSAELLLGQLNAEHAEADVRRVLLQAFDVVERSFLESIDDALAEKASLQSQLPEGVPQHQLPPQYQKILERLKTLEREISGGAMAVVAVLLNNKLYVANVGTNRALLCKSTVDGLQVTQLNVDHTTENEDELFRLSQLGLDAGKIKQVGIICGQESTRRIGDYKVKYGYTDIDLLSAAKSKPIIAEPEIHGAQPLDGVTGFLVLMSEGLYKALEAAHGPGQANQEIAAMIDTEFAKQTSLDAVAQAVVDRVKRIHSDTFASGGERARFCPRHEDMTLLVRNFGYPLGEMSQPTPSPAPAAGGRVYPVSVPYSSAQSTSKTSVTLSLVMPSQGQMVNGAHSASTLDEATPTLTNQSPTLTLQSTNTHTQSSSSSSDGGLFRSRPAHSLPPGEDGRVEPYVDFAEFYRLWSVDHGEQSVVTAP
# [2] = test system: ARH77; assay: AlamarBlue proliferation assay, GI50; type: cell-based; settings: Homo sapiens, ARH-77, 72 hours
# Experimental: (§1) The TAK1 inhibitors are known in the art (see for example, WO 2003010158, WO 2003010163 and WO2004063186 the disclosures of which are incorporated by reference herein). All cell lines were plated at 10,000 cells/well in flat-bottomed 96 well plates and dosed with test compounds in triplicate over a 10 point dosing range from 0 to 30 μmolesL^−1. All cell lines were incubated with test compounds for a total of 72 hours. Background levels were determined for a control (undosed) plate within 2 hours of dosing test compounds. Following the dosing period, the extent of proliferation was measured by adding 1/10 (vol/vol) AlamarBlue reagent to every well and incubating the plates for a further 4 hours. The reaction was stopped by the addition of SDS to a final concentration of 0.1%. Fluorescence was measured at 545 nm (excitation) and 600 nm (emission). Growth inhibition 50 (GI50) values were determined for each test compound across the panel.
# [3] = test system: DOHH2; assay: AlamarBlue proliferation assay, GI50; type: cell-based; settings: Homo sapiens, DOHH-2, 72 hours
# Experimental: as §1
# [4] = test system: HEL92.1.7; assay: AlamarBlue proliferation assay, GI50; type: cell-based; settings: Homo sapiens, HEL 92.1.7, 72 hours, Table 4, read-out: GI50 HEL92.1.7 Erythroleukemia
# Experimental: as §1
# [5] = test system: Jurkat; assay: AlamarBlue proliferation assay, GI50; type: cell-based; settings: Homo sapiens, 72 hours, Table 4, read-out: GI50 Jurkat T-ALL
# Experimental: as §1
# [6] = test system: KG1a; assay: AlamarBlue proliferation assay, GI50; type: cell-based; settings: Homo sapiens, KG-1a, 72 hours, Table 4, read-out: GI50 KG1a AML
# Experimental: as §1
# [7] = test system: Karpas231; assay: AlamarBlue proliferation assay, GI50; type: cell-based; settings: Homo sapiens, 72 hours
# Experimental: as §1
# [8] = test system: MEC1; assay: AlamarBlue proliferation assay, GI50; type: cell-based; settings: Homo sapiens, 72 hours
# Experimental: as §1
# [9] = test system: OCI-LY19; assay: AlamarBlue proliferation assay, GI50; type: cell-based; settings: Homo sapiens, 72 hours
# Experimental: as §1
# [10] = test system: SUDHL4; assay: AlamarBlue proliferation assay, GI50; type: cell-based; settings: Homo sapiens, SU-DHL-4, 72 hours
# Experimental: as §1
# [11] = test system: WSU-NHL; assay: AlamarBlue proliferation assay, GI50; type: cell-based; settings: Homo sapiens, 72 hours, Table 4, read-out: GI50 WSU-NHL B-NHL
# Experimental: as §1
# [12] = test system: Raji; assay: AlamarBlue proliferation assay, GI50; type: cell-based, human; settings: Homo sapiens, Raji, 72 hours, Table 4, read-out: GI50 Raji Burkitts Lymphoma
# Experimental: as §1
# [13] = test system: AM0-1; assay: AlamarBlue proliferation assay, GI50; type: cell-based; settings: Homo sapiens, 72 hours, Table 8, read-out: GI50 AM0-1 plasmacytoma
# Experimental: as §1
# (§2) The experiments to generate the results for both Tables 5 and 6 were performed as described above.
# [14] = test system: IM-9; assay: AlamarBlue proliferation assay, GI50; type: cell-based; settings: Homo sapiens, 72 hours, Table 8, read-out: GI50 IM-9 B lymphoblastoid
# Experimental: as §1, §2
# [15] = test system: JEKO-1; assay: AlamarBlue proliferation assay, GI50; type: cell-based; settings: Homo sapiens, 72 hours, Table 7, read-out: GI50 JEKO-1 MCL
# Experimental: as §1, §2
# [16] = test system: JJN-3; assay: AlamarBlue proliferation assay, GI50; type: cell-based; settings: Homo sapiens, 72 hours, Table 8, read-out: GI50 JJN-3 plasma cell leukemia
# Experimental: as §1, §2
# [17] = test system: JVM-3; assay: AlamarBlue proliferation assay, GI50; type: cell-based; settings: Homo sapiens, 72 hours, Table 7, read-out: GI50 JVM-3 B-PLL
# Experimental: as §1, §2
# [18] = test system: L-363; assay: AlamarBlue proliferation assay, GI50; type: cell-based; settings: Homo sapiens, 72 hours, Table 8, read-out: GI50 L-363 plasma cell leukemia
# Experimental: as §1, §2
# [19] = test system: MOLP-8; assay: AlamarBlue proliferation assay, GI50; type: cell-based; settings: Homo sapiens, 72 hours, Table 8, read-out: GI50 MOLP-8 Multiple myeloma
# Experimental: as §1, §2
# [20] = test system: RPMI-8226; assay: AlamarBlue proliferation assay, GI50; type: cell-based; settings: Homo sapiens, 72 hours, Table 8, read-out: GI50 RPMI-8226 M.M
# Experimental: as §1, §2
# [21] = test system: WSU DLCL2; assay: AlamarBlue proliferation assay, GI50; type: cell-based; settings: Homo sapiens, WSUDLCL2, 72 hours, Table 7, read-out: GI50 WSU-DLCL B cell lymphoma
# Experimental: as §1, §2
# [22] = test system: Lymphoma cell lines carrying the t(14;18) chromosomal translocation; assay: AlamarBlue proliferation assay, Example 2; type: cell-based; settings: t(14;18) lymphoma cell lines, 72 hours, 0 to 30 μmoles/L, FIG. 3
# Experimental: The chemical name of the compound is 3-[(aminocarbonyl)amino]-5-(4-{[4-(2-methoxyethyl)piperazin-1-yl]methyl}phenyl)thiophene-2-carboxamide.
# More specifically, cell lines (OCI-LY19, DOHH2, Karpas231, WSU-NHL and SUDHL4 carry the t(14;18) translocation) were plated at 10,000 cells/well in flat-bottomed 96 well plates and dosed with test compounds in triplicate over a 10 point dosing range from 0 to 30 μmolesL^−1. All cell lines were incubated with test compounds for a total of 72 hours. Background levels were determined for a control (undosed) plate within 2 hours of dosing test compounds. Following the dosing period, the extent of proliferation was measured by adding 1/10 (vol/vol) AlamarBlue reagent to every well and incubating the plates for a further 4 hours. The reaction was stopped by the addition of SDS to a final concentration of 0.1%. Fluorescence was measured at 545 nm (excitation) and 600 nm (emission). GI50 values were determined for each test compound across the panel.
# [23] = Table 4, read-out: GI50 ARH77 Plasma cell leukemia
# [24] = Table 4, read-out: GI50 DOHH2 FL
# [25] = Table 4, read-out: GI50 Karpas231 B-ALL
# [26] = Table 4, read-out: GI50 MEC1 B-CLL
# [27] = Table 4, read-out: GI50 OCI-LY19 DLBCL
# [28] = Table 4, read-out: GI50 SUDHL4 DLBCL
IC50 [1],GI50 [5],"GI50 [7, 25]","GI50 [9, 27]","GI50 [10, 28]",GI50 [12],Structure (SMILES),"GI50 [2, 23]","GI50 [3, 24]",GI50 [4],GI50 [6],"GI50 [8, 26]",GI50 [11],further results
0.126 µM,15.9 µM,0.3 µM,0.124 µM,6.39 µM,15.2 µM,"NC(=O)Nc1sc(-c2ccc(CN3CCOCC3)cc2)cc1C(N)=O [Compound 1, 2-[(aminocarbonyl)amino]-5-[4-(morpholin-4-ylmethyl)phenyl]thiophene-3-carboxamide]",1.17 µM,0.127 µM,0.73 µM,0.45 µM,1.34 µM,0.37 µM,
0.0501 µM,4.39 µM,0.14 µM,0.005 µM,2.42 µM,3.5 µM,"CC(c1ccc(-c2cc(C(N)=O)c(NC(N)=O)s2)cc1)N1CCCCC1 (stereo not shown) [Compound 2, 2-[(aminocarbonyl)amino]-5-[4-(1-piperidin-1-ylethyl)phenyl]thiophene-3-carboxamide]",0.25 µM,0.014 µM,0.17 µM,0.4 µM,0.16 µM,0.25 µM,
0.1 µM,> 30 µM,0.16 µM,0.085 µM,2.72 µM,> 30 µM,"NC(=O)Nc1cc(-c2ccc(CN3CCOCC3)cc2)sc1C(N)=O [Compound 3, 3-[(aminocarbonyl)amino]-5-[4-(morpholin-4-ylmethyl)phenyl]thiophene-2-carboxamide]",0.48 µM,0.175 µM,0.5 µM,0.43 µM,0.63 µM,0.42 µM,
,,,,,,"COc1cc(O)c2c(c1)/C=C/C[C@H](O)[C@H](O)C(=O)/C=C\C[C@H](C)OC2=O [LL-Z-1640-2, (3S,5Z,8S,9S,11E)-8,9,16-trihydroxy-14-methoxy-3-methyl-3,4,9,10-tetrahydro-1H-2-benzoxacyclotetradecine-1,7(8H)-dione, reference compound]",,,,,,,"GI50 ([2]; Table 8, read-out: GI50 ARH-77 plasma cell leukemia): 1.24 µM; GI50 ([3]; Table 7, read-out: GI50 DOHH2 FL): 0.39 µM; GI50 ([7]; Table 7, read-out: GI50 KARPAS231 B-ALL): 0.95 µM; GI50 ([8]; Table 7, read-out: GI50 MEC1 B-CLL): 0.73 µM; GI50 ([9]; Table 7, read-out: GI50 OCI-LY19 DLBCL): 0.23 µM; GI50 ([10]; Table 7, read-out: GI50 SUDHL4 DLBCL): 1.64 µM; GI50 [13]: 0.57 µM; GI50 [14]: 0.02 µM; GI50 [15]: 0.07 µM; GI50 [16]: ≥ 32.4 µM; GI50 [17]: 0.71 µM; GI50 [18]: ≥ 32.4 µM; GI50 [19]: 10.4 µM; GI50 [20]: 1.41 µM; GI50 [21]: 0.02 µM"
,,,,,,"COCCN1CCN(Cc2ccc(-c3cc(NC(N)=O)c(C(N)=O)s3)cc2)CC1 [TAK1 inhibitor, 3-[(aminocarbonyl)amino]-5-(4-{[4-(2-methoxyethyl)piperazin-1-yl]methyl}phenyl)thiophene-2-carboxamide]",,,,,,,sensitivity of cell lines to TAK1 inhibitor [22]: sensitive
